The source of these data is patent publication US6825178B1, “Methods and products for treating pseudomonas infection” (The Brigham and Women's Hospital, Inc., priority 1996, dated 2004).

Marks after values point to notes of the source that are not given here.

The subject of this assay is transformed human airway epithelial cells (CFT1-LCFSN line). Put plainly: Inhibition of internalization of P. aeruginosa strain PAO1 into CFT1-LCFSN cells (bacterial ingestion assay). In kind it is cell-based. The conditions noted are these: for mean cfu P. aeruginosa internalized (standard deviation): strain PAO1, CFT1-LCFSN cells. The source says:
Cell lines. CFT1-LCFSN cells, carrying a retrovirally introduced chromosomal copy of the wild-type human CFTR gene were kindly provided by J. Olsen, J. Yankaskis and L. Johnson from The University of North Carolina, Chapel Hill, N.C.. The cell line parental to CFT1-LCFSN is designated CFT1; it is a line of human papilloma virus 18 E6/E7 transformed bronchial epithelial cells derived from a CF patient homozygous for ΔF508 CFTR. The CFT1-LCFSN cells have normal chloride ion conductance. CFT1-ΔF508 cells are derived from CFT1 cells and carry a cDNA introduced by a retrovirus vector that encodes the ΔF508 mutant form of CFTR. Cells were grown in supplemented F-12 medium as described in 5% CO2 at 37° C.
Bacterial strains. P. aeruginosa strains used include PAO1, a well-characterized laboratory strain, and strains 149 and 324, non-mucoid, LPS-smooth clinical isolates of P. aeruginosa from CF patients early in the course of infection. Fresh cultures of P. aeruginosa grown overnight at 37° C. on a tryptic soy agar plate were suspended in supplemented medium to prepare the bacterial inoculum. Approximately 10^6 cfu of the bacterial inoculum were added per well of 10^5, epithelial cells.
Reagents for inhibition of ingestion assays. Membranes were prepared from C127 cells as described by O'Riordan et al.. Membranes were suspended in 150 mM NaCl, 50 mM Tris, pH 7.5 and 1 mM EDTA and added at the indicated concentration to suspensions of P. aeruginosa strains prior to adding this mixture to CFT1-LCFSN cells to measure bacterial uptake. Membranes from CEM/VbI cells expressing P-glycoprotein and membranes from control CEM cells lacking P-glycoprotein were obtained from James Croop of Harvard Medical School. Purified (˜85%) recombinant CFTR was obtained from Genzyme Corp., and prepared as described. The protein was solubilized in 100 mM NaCl, 10 mM Tris, pH 8.0, 2 mM di-thio-threitol and 0.1% sodium dodecyl sulfate. Monoclonal antibodies raised to synthetic peptides corresponding to the first (MAb CF3) and fourth (MAb CF4) predicted extracellular domains of CFTR, as well as a MAb specific to a peptide representing the carboxy-terminal 14 amino acids of mature CFTR (MAb CF2) were provided by Dr. George Banting, University of Bristol, Bristol, UK [12]. Synthetic peptides were obtained from Chiron Mimetopes, San Diego, Calif. Peptide […] (15 amino acids) (SEQ.ID.NO. 3) represents amino acids 103-117 of mature CFTR, peptide […] (31 amino acids) (SEQ.ID.NO. 4) represents amino acids 881-911 of mature CFTR. Peptides were made up as a stock solution in F-12 medium containing 1 μM/μl based on the purity reported by the manufacturer. Peptides were diluted in F-12 tissue culture medium prior to use in assays.
Bacterial ingestion assay. Cells were released from monolayers in tissue culture flasks by 5 min. of incubation with trypsin-versene mixture (BioWhitaker, Walkersville, Md.), washed, counted and seeded into 96-well tissue culture plates at 10^5 cells/well in supplemented F-12 medium and incubated at 37° C. in 5% CO2. Fresh cultures of P. aeruginosa grown overnight at 37° C. on a tryptic soy agar plate were suspended in supplemented F-12 medium to prepare the bacterial inoculum. Then 10^6 colony forming units (cfu) of the bacterial inoculum were added per well of 10^5 epithelial cells. Bacteria were allowed to invade the epithelial cells for 3 to 4 hours at 37° C., after which nonadherent bacteria were removed by washing. The remaining steps of the assay and the steps involved in the controls have previously been described. Three to 9 replicates were obtained per point, and analyzed using analysis of variance (ANOVA) and the Fisher PLSD statistic to determine pairwise differences. […]

Regarding “CFTR: purified (~85%) recombinant CFTR obtained from Genzyme Corp.”, for the setting “CFT1-LCFSN cells, nanogram quantities of CFTR”, the “inhibition of bacterial ingestion (in words)” value is reported as “significant inhibition of bacterial ingestion”. The “mean cfu P. aeruginosa internalized (standard deviation)” value is, setting by setting: (9.7 μg protein/ml) 1.05 × 10^5 (2.5 × 10^4) cfu; (78 μg protein/ml) 8.55 × 10^4 (1.15 × 10^4) cfu; (625 μg protein/ml) 4.9 × 10^4 (1.25 × 10^4)^a cfu; (5000 μg protein/ml) 1.65 × 10^4 (1.05 × 10^4)^a cfu.
